According to a melting point compilation (Tetko et al.; mined from patent text by program, amines drawn as free bases though some values may be those of a salt):

Row | SMILES | melting point [°C]
1 | CONS(=O)(=O)c1cccc(C(F)(F)F)c1 | 78 to 81
2 | N#CCC(=O)NCc1ccc(Cl)c(Cl)c1 | 144 to 145
3 | FC(F)Oc1cc(-n2nc3c(c2Cl)CCCC3)c(Cl)cc1Cl | 121 to 123
4 | COc1cc(C(=O)N(C(C)C)C2CCCCC2)ccc1Cn1c(CO)nc2ncccc21 | 117 to 119
5 | O=c1c2cccnc2[nH]c2ccnn12 | > 300
6 | CCCCC[C@H]1CC[C@H](CCCCc2ccc(C#N)cc2)CC1 | 51
7 | CCCC(Cn1cncn1)(OCC)c1ccc(Cl)cc1Cl (configuration not stated) | 67
8 | COCCOc1ccc([N+](=O)[O-])cc1[N+](=O)[O-] | 31 to 33
9 | Cc1nn(-c2cc(CC(Cl)C(=O)NC3CC3)c(Cl)cc2Cl)c(=O)n1C(F)F (configuration not stated) | 139 to 143
10 | O=C(Nc1cc(-c2ccc(Cl)cc2)on1)c1c(Cl)cccc1Cl | 228 to 229
11 | COC1(c2cc(F)cc(S(=O)(=O)c3ccc4c(c3)CC/C4=N\O)c2)CCOCC1 | 225 to 226
12 | COC(=O)C(=Cc1ccc(OC)c(OC)c1)NC(C)=O | 198 to 200
13 | Nc1cc(OCC2CC2)c(C(=O)NC2CN3CCC2CC3)cc1Cl (configuration not stated) | 183 to 185
14 | Cn1c(CCSN2CCC3(CC2)CC(=O)c2cc(NS(C)(=O)=O)ccc2O3)cc(=O)n(C)c1=O | 198 to 201
15 | COc1ccc2[nH]c(=O)n(S(=O)(=O)c3ccc(Cl)cc3)c(=O)c2c1 | 192 to 194
16 | NS(=O)(=O)c1ncccc1C(F)(F)F | 135 to 140
17 | Cc1cc(C2=NOC(c3cc(C(F)(F)F)cc(C(F)(F)F)c3)(C(F)(F)F)C2)ccc1Br (configuration not stated) | 108 to 110
18 | O=C(O)C1=Cc2cc(Cl)cc(-c3cccs3)c2OC1C(F)(F)F (configuration not stated) | 258 to 259
19 | CCOc1nc(NCc2ccncc2)nc(Nc2ccc3[nH]c(=O)[nH]c3c2)n1 | 210 to 212
20 | CC(C)=CCn1c(=O)sc2c(=O)[nH]c(N)nc21 | 290 to 292
21 | COc1ccc(COC(C)(C)C(=O)Nc2c(N)n(Cc3ccc(OC)c(OC4CCCC4)c3)c(=S)[nH]c2=O)cc1 | 172 to 184
22 | CC1CC(N)=NN1c1ccc(Cl)cn1 (configuration not stated) | 168 to 170
23 | CS(=O)c1nn(Cc2cccc(C(F)(F)F)c2)c(N)c1C#N (configuration not stated) | 143

Other lines, results leading:

Row | melting point [°C] | SMILES
24 | 225 to 226 | c1ccc(-c2nc3cnccc3[nH]2)cc1
25 | 75 to 76 | COC(=O)CNc1cccc(Cl)c1
26 | 82.5 to 83 | C=C(c1ccccc1)c1ccc(N2CCCC2)cc1
27 | 162 to 166 | O=C(c1cccs1)c1cnn2c(-c3cc([N+](=O)[O-])ccc3Cl)ccnc12
28 | 176 to 177 | COc1ccc(CSc2nnc(-c3ccnc(NC(=O)CCc4ccccc4)c3)o2)cc1C#N
29 | 177 | CCOc1ccc(-c2cc3ccccc3[nH]2)cc1OC
30 | 113 | CCCC(=O)Nc1ccc(OC)c(C(C)=O)c1
31 | 75.7 to 78.8 | SC1CCn2c(CCc3ccccc3)nc3cccc1c32 (configuration not stated)
32 | 240 to 241 | S=C(NCc1cccnc1)c1[nH]c2ccc(Cl)cc2c1-c1ccccc1
33 | 93 to 96 | COc1ccc(S(=O)(=O)C(C)(Cc2ccccc2Br)C(=O)NO)cc1 (configuration not stated)
34 | 151 to 153 | CCCC(=O)c1c[nH]c2c(C(=O)OC)cccc2c1=O
35 | 175 to 177 | CCOC(=O)c1c(C)nc2ccn(-c3ccc(Cl)cc3)n2c1=O
36 | 160 to 161 | CC(C)(C)OC(=O)NCCc1ccnc(-c2nc(=O)c3ccccc3s2)c1
37 | 84 to 86 | CCOC(=O)c1c2ccc(Cl)cc2c(-c2ccccc2)n1CCN
38 | 186 to 187 | CC(C)(C)OC(=O)N[C@@H](Cc1ccc(NC(=O)OCC2c3ccccc3-c3ccccc32)cc1)C(=O)OCc1ccccc1
39 | 91 to 93 | COC(=O)c1ccc(C=O)cc1SCc1ccccc1
40 | 148 to 150 | COC(=O)c1cc(I)cc2c1Nc1ccccc1C2
41 | > 250 | Nc1nc(N)nc(-c2ccc(-c3ccccc3)s2)n1
42 | 169 to 170 | COC(=O)NC=Cc1ccc(O)cc1
